Assay results from PubChem BioAssay (NCI).
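In this assay, cells in 96-well plates receive the compound at five concentrations for 48 hours. Endpoints are linearly interpolated between the surrounding concentrations. GI50 marks 50% less growth. TGI is the concentration that stops growth completely.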

What was measured:
Assay in all cases: NCI tumour cell line growth inhibition, 48 h
K-562 leukemia = system: K-562 leukemia
SW-620 colon = system: SW-620 colon
MOLT-4 leukemia = system: MOLT-4 leukemia
SK-OV-3 ovarian = system: SK-OV-3 ovarian
RPMI-8226 leukemia = system: RPMI-8226 leukemia
IGROV1 ovarian = system: IGROV1 ovarian
NCI-H522 lung = system: NCI-H522 lung
CAKI-1 renal = system: CAKI-1 renal
CCRF-CEM leukemia = system: CCRF-CEM leukemia
BT-549 breast = system: BT-549 breast
SNB-75 CNS = system: SNB-75 CNS
SF-268 CNS = system: SF-268 CNS
SN12C renal = system: SN12C renal
SK-MEL-5 melanoma = system: SK-MEL-5 melanoma
TK-10 renal = system: TK-10 renal
UO-31 renal = system: UO-31 renal
NCI/ADR-RES ovarian = system: NCI/ADR-RES ovarian
T-47D breast = system: T-47D breast
OVCAR-3 ovarian = system: OVCAR-3 ovarian
OVCAR-8 ovarian = system: OVCAR-8 ovarian
NCI-H226 lung = system: NCI-H226 lung
MDA-MB-231 breast = system: MDA-MB-231 breast
SF-295 CNS = system: SF-295 CNS
KM12 colon = system: KM12 colon
A549 NSCLC = system: A549 NSCLC
SK-MEL-28 melanoma = system: SK-MEL-28 melanoma
M14 melanoma = system: M14 melanoma
NCI-H460 lung = system: NCI-H460 lung
SR leukemia = system: SR leukemia
OVCAR-4 ovarian = system: OVCAR-4 ovarian
HCT-116 colon = system: HCT-116 colon
786-0 renal = system: 786-0 renal
COLO 205 colon = system: COLO 205 colon
PC-3 prostate = system: PC-3 prostate
UACC-62 melanoma = system: UACC-62 melanoma
MALME-3M melanoma = system: MALME-3M melanoma
A498 renal = system: A498 renal
UACC-257 melanoma = system: UACC-257 melanoma
RXF 393 renal = system: RXF 393 renal
MDA-MB-468 breast = system: MDA-MB-468 breast
SK-MEL-2 melanoma = system: SK-MEL-2 melanoma
HOP-92 NSCLC = system: HOP-92 NSCLC
SNB-19 CNS = system: SNB-19 CNS
HL-60(TB) leukemia = system: HL-60(TB) leukemia
NCI-H23 lung = system: NCI-H23 lung
HOP-62 NSCLC = system: HOP-62 NSCLC
MCF7 breast = system: MCF7 breast
EKVX NSCLC = system: EKVX NSCLC
U251 CNS = system: U251 CNS
LOX IMVI melanoma = system: LOX IMVI melanoma
HT29 colon = system: HT29 colon
SF-539 CNS = system: SF-539 CNS
OVCAR-5 ovarian = system: OVCAR-5 ovarian
MDA-MB-435 = system: MDA-MB-435
HS 578T breast = system: HS 578T breast
HCC-2998 colon = system: HCC-2998 colon
ACHN renal = system: ACHN renal
DU-145 prostate = system: DU-145 prostate
HCT-15 colon = system: HCT-15 colon

Cc1ccc(C2CC(c3ccc(NC(=O)Nc4ccccc4)cc3)=NN2c2ccc(S(C)(=O)=O)cc2)cc1 (stereo not drawn)
GI50 (K-562 leukemia): 3.14 µM
TGI (K-562 leukemia): 70.9 µM
GI50 (SW-620 colon): 2.6 µM
TGI (SW-620 colon): 12.1 µM
GI50 (MOLT-4 leukemia): 2.42 µM
TGI (MOLT-4 leukemia): 8.14 µM
GI50 (SK-OV-3 ovarian): 7.96 µM
TGI (SK-OV-3 ovarian): 21.2 µM
GI50 (RPMI-8226 leukemia): 2.48 µM
TGI (RPMI-8226 leukemia): 7.98 µM
GI50 (IGROV1 ovarian): 2.91 µM
TGI (IGROV1 ovarian): 11 µM
GI50 (NCI-H522 lung): 2.24 µM
TGI (NCI-H522 lung): 10.6 µM
GI50 (CAKI-1 renal): 3.34 µM
TGI (CAKI-1 renal): 11.6 µM
GI50 (CCRF-CEM leukemia): 2.53 µM
TGI (CCRF-CEM leukemia): 6.98 µM
GI50 (BT-549 breast): 2.95 µM
TGI (BT-549 breast): 7.93 µM
GI50 (SNB-75 CNS): 4.44 µM
TGI (SNB-75 CNS): 19.3 µM
GI50 (SF-268 CNS): 3.82 µM
TGI (SF-268 CNS): 15.5 µM
GI50 (SN12C renal): 1.69 µM
TGI (SN12C renal): 3.16 µM
GI50 (SK-MEL-5 melanoma): 2.34 µM
TGI (SK-MEL-5 melanoma): 6.28 µM
GI50 (TK-10 renal): 4.52 µM
TGI (TK-10 renal): 17.1 µM
GI50 (UO-31 renal): 2.58 µM
TGI (UO-31 renal): 11.2 µM
GI50 (NCI/ADR-RES ovarian): 2.5 µM
TGI (NCI/ADR-RES ovarian): 7.74 µM
GI50 (T-47D breast): 3.02 µM
TGI (T-47D breast): 11.1 µM
GI50 (OVCAR-3 ovarian): 1.93 µM
TGI (OVCAR-3 ovarian): 4.47 µM
GI50 (OVCAR-8 ovarian): 4.83 µM
TGI (OVCAR-8 ovarian): 21.7 µM
GI50 (NCI-H226 lung): 2.41 µM
TGI (NCI-H226 lung): 7.04 µM
GI50 (MDA-MB-231 breast): 2.11 µM
TGI (MDA-MB-231 breast): 4.94 µM
GI50 (SF-295 CNS): 2.58 µM
TGI (SF-295 CNS): 8.35 µM
GI50 (KM12 colon): 3.15 µM
TGI (KM12 colon): 10.7 µM
GI50 (A549 NSCLC): 3.46 µM
TGI (A549 NSCLC): 16 µM
GI50 (SK-MEL-28 melanoma): 3.39 µM
TGI (SK-MEL-28 melanoma): 11.9 µM
GI50 (M14 melanoma): 3.28 µM
TGI (M14 melanoma): 12.6 µM
GI50 (NCI-H460 lung): 2.2 µM
TGI (NCI-H460 lung): 5.6 µM
GI50 (SR leukemia): 2.59 µM
TGI (SR leukemia): 10.7 µM
GI50 (OVCAR-4 ovarian): 2.84 µM
TGI (OVCAR-4 ovarian): 11.3 µM
GI50 (HCT-116 colon): 1.72 µM
TGI (HCT-116 colon): 3.56 µM
GI50 (786-0 renal): 2.24 µM
TGI (786-0 renal): 6.1 µM
GI50 (COLO 205 colon): 1.93 µM
TGI (COLO 205 colon): 3.65 µM
GI50 (PC-3 prostate): 2.82 µM
TGI (PC-3 prostate): 11.8 µM
GI50 (UACC-62 melanoma): 3.19 µM
TGI (UACC-62 melanoma): 13.4 µM
GI50 (MALME-3M melanoma): 2.47 µM
TGI (MALME-3M melanoma): 8.74 µM
GI50 (A498 renal): 2.73 µM
TGI (A498 renal): 6.97 µM
GI50 (UACC-257 melanoma): 6.15 µM
TGI (UACC-257 melanoma): 22.6 µM
GI50 (RXF 393 renal): 1.84 µM
TGI (RXF 393 renal): 5.08 µM
GI50 (MDA-MB-468 breast): 2.09 µM
TGI (MDA-MB-468 breast): 5.66 µM
GI50 (SK-MEL-2 melanoma): 7.39 µM
TGI (SK-MEL-2 melanoma): 22.3 µM
GI50 (HOP-92 NSCLC): 2.35 µM
TGI (HOP-92 NSCLC): 8.22 µM
GI50 (SNB-19 CNS): 5.53 µM
TGI (SNB-19 CNS): 18.4 µM
GI50 (HL-60(TB) leukemia): 2.09 µM
TGI (HL-60(TB) leukemia): 6.11 µM
GI50 (NCI-H23 lung): 2.48 µM
TGI (NCI-H23 lung): 8.48 µM
GI50 (HOP-62 NSCLC): 6.94 µM
TGI (HOP-62 NSCLC): 21.4 µM
GI50 (MCF7 breast): 2.11 µM
TGI (MCF7 breast): 6.79 µM
GI50 (EKVX NSCLC): 2.61 µM
TGI (EKVX NSCLC): 11.1 µM
GI50 (U251 CNS): 4.36 µM
TGI (U251 CNS): 17.1 µM
GI50 (LOX IMVI melanoma): 1.68 µM
TGI (LOX IMVI melanoma): 3.07 µM
GI50 (HT29 colon): 1.91 µM
TGI (HT29 colon): 4.97 µM
GI50 (SF-539 CNS): 2.28 µM
TGI (SF-539 CNS): 6.05 µM
GI50 (OVCAR-5 ovarian): 2.27 µM
TGI (OVCAR-5 ovarian): 6.78 µM
GI50 (MDA-MB-435): 2.94 µM
TGI (MDA-MB-435): 12.3 µM
GI50 (HS 578T breast): 3.47 µM
TGI (HS 578T breast): 17.2 µM
GI50 (HCC-2998 colon): 2.38 µM
TGI (HCC-2998 colon): 6.27 µM
GI50 (ACHN renal): 2.99 µM
TGI (ACHN renal): 9.59 µM
GI50 (DU-145 prostate): 4.43 µM
TGI (DU-145 prostate): 18.2 µM
GI50 (HCT-15 colon): 1.95 µM
TGI (HCT-15 colon): 5.4 µM
